Data: patent US20240374626A1, “METHODS OF ENHANCING MILK PRODUCTION IN LACTATING MAMMALIAN SUBJECTS” (priority 2023, published 2024)

Legend:
Csn2 = test: Contralateral intraductal injection: Csn2 expression in MGs by RT-qPCR; type: in vivo, mouse
Experimental: Nulliparous analysis was performed using adult (10-12-week-old) female mice. For timed pregnancies and lactation analysis, CD-1 pregnant adult females were obtained from Charles Rivers. Embryos were examined at the time of mammary gland harvesting to confirm pregnancy state. […] Plugged mice were considered to be PD0.5 on the day of the observed plug. All females used in this study were age matched.
Mice were anesthetized with isoflurane (VetOne, 501017) Prior to intraductal injections, hair was removed from around the nipples using Nair hair remover. Injections into the duct of the nipple were performed with 33 G needles (Hamilton, 7803-05) and a volume of 40 μl per gland. Right inguinal, abdominal and thoracic glands were injected with doxorubicin (1.5 μg per gland, Cayman Chemical, 15007), nucleosides (40 μl per gland, Millipore-Sigma, ES-008-D) or Mk-1775 (50 μg per gland, Cayman Chemical, 21266), and left glands were injected with PBS or DMSO (Thermo Scientific, BP231) diluted in PBS.
For RNA isolation from FACS purified populations, mammary gland cell suspensions were blocked using Mouse BD Fc Block™ (BD Biosciences) for 10 min. Cells were subsequently resuspended on 1×PBS at a density of 10^7 cells/ml and stained with the following antibodies for 30 min on ice: anti-CD24 PE (Stem Cell Technologies, 60099PE.1), anti-CD29 PE-Cy7 (BioLegend, 102222), anti-CD45-APC (BioLegend,105826), Ter119-APC (BD Biosciences, 561033), CD31-ACP (BD Biosciences, 551262). Propidium iodide at a final concentration of 0.5 μg/ml was used for the discrimination of dead cells. Stromal, basal and luminal mammary populations were sorted using a BD FACS Aria II Cell Sorter. […] Total RNA quality was analyzed by agarose gel electrophoresis and quantified using an ND-1000 spectrophotometer (NanoDrop). cDNA was prepared from 500-1000 ng of total RNA using iScript cDNA synthesis kit (Bio-Rad, 1708841). Quantitative RT-qPCR was performed in triplicates using SsoAdvanced Universal SYBR Green Supermix, (Bio-Rad, 1725272). […]

γH2AX = γH2AX immunofluorescence on HC11 cells; type: cell-based, mouse; conditions: HC11, doxorubicin 50 nM, 24 h post-treatment
Experimental: […] Drugs were maintained through the differentiation process and added with every change of media.
HC11 cells were fixed using ice-cold MeOH for 10 min. After washing with 1×PBS, cells were incubated for 1 h at room temperature with primary antibodies [anti-γH2AX (SCBT, sc-517348), anti-pATR (Genetex, GTX128145), anti-PLIN2 (generously provided by Jim McManaman)] in a humid incubation chamber. After incubation, cells were washed three times using 1×PBS and incubated for 1 h at room temperature in darkness using corresponding Alexa Fluor AffiniPure secondary antibodies (Jackson ImmunoResearch) and Phalloidin-iFluor 488 Reagent (Abcam, ab176753) when indicated. Cells were washed three times using 1×PBS and incubated with Hoechst 33342 (AnaSpec, AS-83218) for 10 min. Cells were mounted using fluoromount-G (Southern Biotech, 0100-01) and visualized using Zeiss Axio Imager Microscope. Integrated density of PLIN2, nuclear γH2AX and nuclear pATR was quantify using ImageJ.

| Structure (SMILES) | Csn2 expression, RT-qPCR (Csn2; Mk-1775 IDI at PD16.5 vs contralateral DMSO, LD2 or LD5 MGs) | γH2AX (γH2AX) | milk production as Csn2 expression, RT-qPCR (Csn2; doxorubicin IDI at PD12.5 vs contralateral DMSO, PD17.5 MGs) |
| --- | --- | --- | --- |
| C=CCn1c(=O)c2cnc(Nc3ccc(N4CCN(C)CC4)cc3)nc2n1-c1cccc(C(C)(C)O)n1 [Mk-1775] | decrease |  |  |
| COc1cccc2c1C(=O)c1c(O)c3c(c(O)c1C2=O)C[C@@](O)(C(=O)CO)C[C@@H]3O[C@H]1C[C@H](N)[C@H](O)[C@H](C)O1 [doxorubicin] |  | increase | increase |
